This is an account of results in PMC6703555 (Journal of medicinal chemistry, 2018).

By EC50 is commonly meant the midpoint of the concentration-response curve. As a reminder, the half-life is the time needed for the level to fall by half in the phase considered. A high value points to slow decline.

The structures appear in SMILES notation. Some results are limits rather than exact numbers.

One series deals with Vγ9Vδ2 T cells. Particulars: 72 hour compound exposure, PBMCs; cited from earlier work.
In another series the test system is cancer cells. Particulars: 2 hour exposure; cited from earlier work.
Another series relates to B30.2 domain of BTN3A1. Particulars: ITC; cited from earlier work. Background: In ITC the heat of successive injections is recorded.
The conditions of series [1]: human plasma.
Another series in a line: in vitro. To be noted: human, plasma, pH 7.5, half-life, 50% pooled human plasma in PBS.

`COP(=O)(CC/C=C(\C)CO)OC` [Compound 11]: the half-maximal effective concentration (EC50) in the series on Vγ9Vδ2 T cells is over 10 µM. For the molecule `C/C(=C\COP(=O)(O)OP(=O)(O)O)CO` [HMBPP, (E)-4-hydroxy-3-methyl-but-2-enyl diphosphate], in the series with cancer cells, the concentration for a half-maximal effect (EC50) was 0.019 µM. On to `C/C(=C\CCP(=O)([O-])[O-])CO.[Na+].[Na+]` [Compound 10], for which, in the series on Vγ9Vδ2 T cells, the EC50 is 4 µM. Besides, in the series with B30.2 domain of BTN3A1, the “binding to the B30.2 domain of BTN3A1” value is “does bind”.

For `C/C(=C\CCP(=O)(OCOC(=O)C(C)(C)C)OCOC(=O)C(C)(C)C)CO` [Compound 2], in series [1], the “hydrolysis after two hours” value is “more than 95%”. Also, the concentration giving a half-maximal response (EC50) in the series on cancer cells is 0.0012 µM. Besides, in the series “in vitro”, the half-life was about 8 min.
